Among the data in ChEMBL document CHEMBL4270599, “Synthesis of a 3'-C-ethynyl-β-d-ribofuranose purine nucleoside library: Discovery of C7-deazapurine analogs as potent antiproliferative nucleosides” (Eur J Med Chem, 2018) are growth and Activity values, retold here.

Molecules are shown by their SMILES. The source made the active and inactive calls. The rule behind the calls is not given here.

One test has as its system LOX IMVI. Kind of test: Growth inhibition of human LOXIMVI cells assessed as cell growth at 10^-6 M incubated for 48 hrs by sulforhodamine B assay relative to control. The test is classed as functional. The conditions noted are these: read-out: Activity. (In general: The SRB assay estimates cell density from bound dye.)
The test system of test [1] is Homo sapiens. Kind of test: Antitumor activity against human MDA-MB-231-LM2 cells xenografted in SCID mouse assessed as decrease in tumor size at 0.3 mg/kg, it 3 times a week for 2 consecutive weeks starting 10 days post inoculation. It is filed as functional, organism-based. Background: Xenograft models place foreign cells or tissue in a host animal.
A short description of test [2]: Antitumor activity against human MDA-MB-231-LM2 cells xenografted in SCID mouse assessed as tumor weight at 0.3 mg/kg, it 3 times a week for 2 consecutive weeks starting 10 days post inoculation measured at day 35 (reference value: 551 +/- 74 mg). The test is classed as functional.
Test [3] deals with Homo sapiens. Kind of test: Antitumor activity against human MDA-MB-231-LM2 cells xenografted in SCID mouse assessed as inhibition of lung metastasis at 0.3 mg/kg, it 3 times a week for 2 consecutive weeks starting 10 days post inoculation measured at day 34. It is filed as functional, organism-based.

Take `C#C[C@@]1(O)[C@@H](CO)O[C@@H](n2cc(F)c3c(N)ncnc32)[C@@H]1O`: the growth at 1 µM with LOX IMVI amounted to 4%.

On to `C#C[C@@]1(O)[C@@H](CO)O[C@@H](n2cc(Cl)c3c(N)ncnc32)[C@@H]1O`, for which the outcome in the test with Homo sapiens [1] and in the test with Homo sapiens [3] was Active. For the same molecule, the Activity in test [2] is 241 mg.

On to `C#C[C@@]1(O)[C@@H](CO)O[C@@H](n2ccc3c(N)ncnc32)[C@@H]1O`, for which the growth at 1 µM with LOX IMVI is 40%.
